In patent US5114960A, “Substituted isoxazole derivatives” (Hoffmann-La Roche Inc., priority 1989, dated 1992) one finds IC50 data, which are given here for 6 molecules.

pIC50: −log10 of the molar value.

This assay has as its system IL-1-dependent PGE^2. The assay is described as follows: IL-1-dependent PGE2 inhibition test in human rheumatoid synovial cell lines. The class given is cell-based. The settings on record: recombinant human IL-1 alpha 0.1 ng/ml, 7 hours, 37° C., read-out: IC50 (concentration reducing PGE2 release to 50% of IL-1-stimulated control values). The method, then: IL-1-dependent PGE ^2 inhibition test:
Human rheumatoid synovial cell lines, prepared by the enzymatic dissociation of fresh rheumatoid tissue, were maintained by culture in Dulbecco's modified Eagle medium containing 25 mM HEPES, 10% foetal calf serum, 100 units of penicillin per ml and 100 μg of streptomycin per ml (culture medium). Standard incubation conditions were 37° C. in a water-saturated atmosphere containing 95% air and 5% CO2.
Semi-confluent cultures at the third to eighteenth passage were detached by trypsin treatment and resuspended in culture medium at […]. The cell suspension was distributed to 200 μl aliquots into the wells of a 96-well microtitration plate and incubated for 18 hours at 37° C. to allow adhesion of the cells.
Test substances were dissolved in equimolar sodium hydroxide solution and double-dilution series were prepared in sterile water. If the test substances is a compound of formula I in which one of R^1 and R^2 is alkoxycarbonyl and the other hydrogen, it is treated with hog liver esterase prior to carrying out the test. The medium was aspirated from the microcultures of the synovial cells. 170 μl of culture medium were added and the cultures were treated with 20 μl of test substances and then 10 μl of recombinant human IL-1 alpha culture medium to give a final concentration of 0.1 ng/ml. All treatments were carried out in quadruplet. After incubation for 7 hours, samples of the culture media were removed and stored at -20° C. prior to assay for PGE2. The PGE2 content was determined using a [^I 125]R1A kit obtained from NEN Products.
PGE2 concentration detected in unstimulated controls were subtracted from values determined in all stimulated cultures and results were transformed to percent of IL-1-stimulated control PGE2 values. IC50 values were determined by interpolation as those concentrations reducing PGE2 release to 50% of IL-1-stimulated control values.
On to `O=C(O)[C@H]1[C@H]2CCc3c(-c4ccc(Cl)cc4)noc3[C@H]21` (relative stereo) [Compound C, endo-3-(4-Chlorophenyl)-5,5a,6,6a-tetrahydro-4H-cyclopropa[g]-1,2-benzisoxazole-6-carboxylic acid], for which the pIC50 is 6.30. As for `CO[C@@H]1CC[C@@H](C(=O)O)Cc2onc(-c3ccc(Cl)cc3)c21` (relative stereo) [Compound D, trans-3-(4-Chlorophenyl)-5,6,7,8-tetrahydro-4-methoxy-4H-cyclohept[d]isoxazole-7-carboxylic acid], the pIC50 is 5.10.

For `C[C@H]1CC[C@H](C(=O)O)Cc2onc(-c3ccc(Cl)cc3)c21` (relative stereo) [Compound E, trans-3-(4-Chlorophenyl)-5,6,7,8-tetrahydro-4-methyl-4H-cyclohept[d]isoaxazole-7-carboxylic acid], the pIC50 is 7.40. As for `O=C(O)C1CCc2onc(-c3ccc(Cl)cc3)c2CC1` (single isomer, unassigned; (+)) [Compound A, (+)-3-(4-Chlorophenyl)-5,6,7,8-tetrahydro-4H-cyclohept[d]isoxazole-6-carboxylic acid], the figure is 5.70. As for `O=C(O)C1CCCc2c(-c3ccc(Cl)cc3)noc2C1` (stereo not drawn) [Compound B, 3-(4-Chlorophenyl)-5,6,7,8-tetrahydro-4H-cyclohept[d]isoxazole-7-carboxylic acid], the pIC50 was 4.82. As for `CCC1(C(=O)O)C2CCc3c(-c4ccc(Cl)cc4)noc3C21` (stereo not drawn) [Compound F, endo-3-(4-Chlorophenyl)-6-ethyl-5,5a,6,6a-tetrahydro-4H-cyclopropa[g]-1,2-benzisoxazole-6-carboxylic acid], the figure is 6.15.
